# Data as given in patent US7271187B2, “Compositions and methods for promoting tissue regeneration” (priority 2000, dated 2007).
# How the values were obtained:
# PND5 rat cultures = experiment: Post natal day 5 rat cortical/subventricular zone cultures, immunostaining; type: cell-based
# Protocol: The method of the invention is also exemplified by a second embodiment in which N-[4-[(4-fluorophenyl)sulfonyl]phenyl]acetamide is administered in vitro to tissue from postnatal mammals. Treatment with N-[4-[(4-fluorophenyl)sulfonyl]phenyl]acetamide results in neuroregeneration as evidenced by immunostaining for beta-tubulin, eNCAM and MAP II. Neural tissue harvested from Post Natal day 5 (PND5) animals can be prepared in culture by the method above used with E18 cells, except that the cultures are not treated with glutamate because the neurons are unable to survive the culture preparation step. Using an assay system, cells can be treated with N-[4-[(4-fluorophenyl)sulfonyl]phenyl]acetamide 24 hours after the cultures are established.
# In one study, PND-5 day cultures generated from tissue isolated specifically from the subventricular zone were compared to cultures generated from the whole cortex. Twenty four hours after dissection, cultures were treated with the compound. Four weeks after treatment, cultures were immunostained with antibodies against β-tubulin or antibodies against MAP II.
# Post natal day 5 rat pups (Taconic Labs) were decapitated, skin covering the cranium was removed so the bone over top the brain could be opened. Using a sterile spatula, the brain was extracted from the opened cranium and transferred to a 60 mm petri dish (Corning) containing sterile, ice cold Hank's balanced salt solution (HBSS). The meningial tissue was removed from the cortex, the cortex was gently teased away from the subcortical structures and transferred to a new 60 mm petri dish containing ice cold HBSS. Using a pair of fine, curved forceps, the desired cortical material was pinched from the remainder of the cortex and transferred to a new 60 mm petri dish containing ice cold HBSS. For most experiments, only tissue in the immediate vicinity of the subventricular zone was collected while in a few experiments, almost the entire cortex was pinched leaving only the outer most layer of cortical tissue behind. After harvesting all cortical tissue, the tissue was minced using two #11 scalpel blades that were repeatedly drawn across each other. After the majority of the tissue was minced into approximately 1 mm cubes, the HBSS was removed and replaced with 4 ml of trypsin/EDTA (Gibco—0.5%/5.3 mM) plus 1 ml of DNase (Sigma—0.01%). The petri dish containing tissue and enzymes were placed in a 37° C. incubator for 30 minutes and agitated every 5 minutes. After 30 minutes, the tissue was removed from the incubator and 1 ml 0.1 mg/ml of soybean trypsin inhibitor was added. Tissue was transferred to a 15 ml conical tube, spun at 500×g for 10 minutes in a refrigerated centrifuge. Supernatant was removed, the pellet was resuspended in 10 ml of DMEM+10% FBS, passed first through a 100 μm filter (Falcon) and finally through a 40 μm filter (Falcon). A cell count was performed to determine the final volume of media needed to yield a cell density of 1×10^6 viable cells per ml. Five hundred microliters of supernatant containing 5×10^5 viable cells was added to each well of 24 well cluster plates previously coated with 5 μg/ml poly lysine.
# To remove the cellular debris, all plates were washed 24 hours after plating. Each plate was gently rocked several times, the media was removed and replaced with 1 ml of 37° C. DMEM. […]
# bone marrow cells = experiment: Nestin expression in bone marrow cells after systemic administration; type: in vivo, rat; settings: bone marrow harvested 3-7 days after systemic administration; vs non-treated rats
# Text: In some embodiments of the invention, cells, preferably bone marrow cells, can be transferred from a first animal treated according to methods of the invention to a site of chronic spinal cord injury in the first animal or in a second animal.
# [1] = tested on: compressive injuries to the spinal cords of rats; experiment: Compressive spinal cord injury, closure of cavities; type: in vivo, rat; settings: compound in a saline vehicle; vs untreated or saline treated rats
# Text: In another study, cavities are induced by compressive injuries to the spinal cords of rats. In the study, rats are either untreated, treated with a saline vehicle, or treated with N-[4-[(4-fluorophenyl)sulfonyl]phenyl]acetamide in a saline vehicle.
# [2] = tested on: cortical neurons on aged astrocytes; experiment: Growth of cortical neurons on aged astrocytes, count of tubulin-positive neurons; type: cell-based, Sprague Dawley rat; settings: 1 week after treatment; for Number of Neurons, Well 2 / Number of Neurons, Well 4: control 74; for Number of Neurons, Well 3: control 89; for Number of Neurons, mean: control 82.50
# Protocol: Astrocytes: postnatal day 2 (P2) Sprague Dawley rat cortices were aseptically dissected and trypsinized for 20 min at 37° C. in 0.25% trypsin-EDTA (GIBCO) and DNAse (0.2 mg/ml, Worthington). Enzyme action was stopped by the addition of soybean trypsin inhibitor (SIGMA)) and DNAse. Tissue was dissociated into single cell suspension by trituration with a 5 ml pipette, filtered though a 40 μm nylon filter and centrifuged at 500×g for 3 minutes. The pellet was taken up in medium (DMEM/10% fetal bovine serum) and cells were plated into poly-D-lysine (10 μg/ml, SIGMA) T75 flasks (one flask/cortex). After 23 days, astrocytes were trypsinized and replated at a density of 500,000 cells per well into poly-D-lysine-coated 24 well plates. Cultures were grown for an additional 20 days in order to let astrocytes mature. This maturation is known to make the astrocytes less permissive for neurite outgrowth (see G. M. Smith, et al., Developmental Biology, 138, 377-390 (1990), and G. M. Smith and J. Silver, Progress in Brain Research, Vol. 78, Chapt. 46, D. M. Cash and J. R. Sladek, ed., Elsevier, 1988.
# Cortical neurons: mixed cortical cells were dissociated from embryonic day 18 Sprague Dawley rat embryos as described for astrocytes. In order to obtain more pure neuonal cultures, cells were subjected to a differential adhesion by pre-plating them on a non-coated bacterial dish (100 mm diameter) for 1 hour. Non-neuronal cells stick to this plate while neurons stay in the supernatant. Neurons were added to the aged astrocytes at a density of 10,000 cells/well in DEME/10% fetal bovine serum. One day later, the cultures were treated with 1 μg/ml and 10 μg/ml of N-4[4-[(4-fluorophenyl)sulfonyl]phenyl]acetamide. 1 week after treatment, cultures were fixed and immunostained with monoclonal anti-tubulin antibody (SIGMA, 1:800 diluted), followed by rhodamine-conjugated goat-anti-mouse secondary (1:100 dilution). Tubulin labels axons and dentrites.
# Analysis: Tubulin-positive cell bodies with a process at least two cell diameters long were counted in 5 visual fields under 10× magnification with a Nikon Eclipse 2000 inverted microscope. Results were expressed as means of quadruplicate wells+/−SEM and are shown in Table I. Any patent application to which this application claims priority is incorporated by reference herein in its entirety.
# [3] = study of subventricular zone vs whole cortex cultures, four weeks after treatment
smiles,measurement,setting,value
CC(=O)Nc1ccc(S(=O)(=O)c2ccc(F)cc2)cc1 [N-[4-[(4-fluorophenyl)sulfonyl]phenyl]acetamide],number of β-tubulin positive cells,"PND5 rat cultures; four weeks post treatment, vs untreated control wells",increased numbers of β-tubulin positive cells
same,eNCAM expression,"PND5 rat cultures; one week post treatment, vs untreated control samples",Enhanced expression of eNCAM
same,MAP-II expression,"PND5 rat cultures; six weeks post treatment, vs untreated control samples",MAP-II expression is enhanced
same,number of MAP II positive cells,PND5 rat cultures; [3],Greater numbers
same,number of β-tubulin positive cells,PND5 rat cultures; [3],Greater numbers
same,expression of Nestin in bone marrow cells,bone marrow cells,increased expression of Nestin
same,extent of closure of the cavity in the spinal cord,[1],most extensive closure of the cavity
same,"Number of Neurons, Well 2",[2]; 1 μg/ml,103
same,"Number of Neurons, Well 4",[2]; 1 μg/ml,176
same,"Number of Neurons, Well 3",[2]; 1 μg/ml,171
same,"Number of Neurons, Well 1","[2]; 1 μg/ml, control 93",132
same,"Number of Neurons, mean","[2]; 1 μg/ml, mean of quadruplicate wells",145.50
same,"Number of Neurons, Well 2",[2]; 10 μg/ml,129
same,"Number of Neurons, Well 4",[2]; 10 μg/ml,133
same,"Number of Neurons, Well 3",[2]; 10 μg/ml,173
same,"Number of Neurons, mean","[2]; 10 μg/ml, mean of wells",145.00
